Data: patent US5776720A, “Assay reagent” (priority 1995, dated 1998)
Where “and” joins values, the source holds several entries; their conditions need not be identical. Identical values can stand only once. Numbered stars: 1 amine (or outer) side, 2 acyl side, 3 side chain; on linkers, the order of the positions; unused ones are H or OH. Bridge positions count the residues as written; N and C are the ends. Peptide text beside a SMILES is read from it. I, II: the chains in the order shown. Rhodamine110 = O=C1OC2(c3ccc(N[*:1])cc3Oc3cc(N[*:2])ccc32)c2ccccc21

Legend:
Format in all cases: cell-based, human
[1] = test system: Ala-aminopeptidase and Lys-aminopeptidase, Dipeptidyl peptidase IV and Cathepsin D; assay: Panel of substrates in normals and HIV+ patients (Table 4)
Method: A panel of assay compounds are assembled consisting of Ala-aminopeptidase and Lys-aminopeptidase, Dipeptidyl peptidase IV (Ala-Ala)2 rhodamine 110 and Cathepsin D to indicate possible TB infection in AIDS related cases.
A panel of enzymatic substrates is performed consisting of Ala-aminopeptidase and Lys-aminopeptidase, Dipeptidyl peptidase IV (Ala-Ala)2 rhodamine 110 and Cathepsin D to indicate possible TB infection in AIDS related cases.

lymphocytes = assay: Normal leukocyte enzyme activity (Table 3A), lymphocytes; design: unit not given here; settings: normal donors
Text: (§1) The measured fluorescence intensity can be converted from mean channel fluorescence (in peak or integrated mode) to MESF (molecules of equivalent soluble fluorochrome, Flow Cytometry Standards Corp. , San Juan, Puerto Rico) or International Units of hydrolysis per cell. A normal range of enzyme activity is established by assaying males and females in sufficient quantity to characterize the population levels statistically.
(§2) A normal in house adult donor pool was drawn, recording sex and determining that no known disease state was present at the time of sample draw. Criteria for rejecting samples included patients under medication, patients with infection or inflammation of any type, colds and flu as well as any known medical illness such as cancer, heart ailment and high blood pressure. A donor list of 75 patients has been developed and a mean and 2 sd range established. A subgroup of "super normals" was developed from this list by examining the 75 patients to determine which group falls closest to the mean for all enzymes in all cell types tested. These patients were used as the "wellness index" or best group of "normalcy" patients. If a study required the use of children or newborns then this same format was used to develop a data base for these age groups.

monocytes = assay: Normal leukocyte enzyme activity (Table 3A), monocytes; design: unit not given here; settings: normal donors
Text: as §1, §2

granulocytes = assay: Normal leukocyte enzyme activity (Table 3A), granulocytes; design: unit not given here; settings: normal donors
Text: as §1, §2

erythrocytes = assay: Normal erythrocyte enzyme activity (Table 3B); settings: normal donors
Method: A sample, consisting of whole blood (in EDTA, Heparin or ACD) or dissociated tissue or body fluids (synovial fluid) or cell culture media is obtained and stored in a manner so as not to decrease viability. The sample is washed sufficiently to remove plasma, media, body fluid, debris and extra-cellular enzymes. The wash media consists of a physiologically balanced buffered salt solution. The washed cells are incubated at 37° C. 50 μL of sample and 25 μL of substrate media are mixed together and allowed to incubate at 37° C. for a predetermined amount of time. At the end of the incubation period, the sample is then measured for fluorescence.
as §2

MONOS = assay: Aberrant enzyme activities in febrile children (Table 7), monos
GRANS = assay: Aberrant enzyme activities in febrile children (Table 7), grans

| Molecule | NORMAL LEUKOCYTE ENZYME ACTIVITY, LYMPHS Mean (lymphocytes) | NORMAL LEUKOCYTE ENZYME ACTIVITY, MONOS Mean (monocytes) | NORMAL LEUKOCYTE ENZYME ACTIVITY, GRANS Mean (granulocytes) | NORMAL E[…] ACTIVITY MEAN (erythrocytes) | other results |
| --- | --- | --- | --- | --- | --- |
| NC(=O)CC[C@H](N)C(=O)N[C@@H](CO)C(=O)Nc1ccc2c(c1)Oc1cc(NC(=O)[C@H](CO)NC(=O)[C@@H](N)CCC(N)=O)ccc1C21OC(=O)c2ccccc21 (relative stereo) [GLN--SER*] |  |  |  |  | MEAN DELTA FL ([1]; HIV + PATIENTS): 13.7 and 12.7; MEAN DELTA FL ([1]; NORMALS): 11.9 and 6.1 |
| O=C1OC2(c3ccc(OC4O[C@H](CO)[C@@H](O)[C@H](O)[C@H]4O)cc3Oc3cc(OC4O[C@H](CO)[C@@H](O)[C@H](O)[C@H]4O)ccc32)c2ccccc21 (stereo partly drawn) [DIGLUC (FL)] | 0.23 | 1.89 | 0.45 | 0.110 |  |
| O=C1OC2(c3ccc(OP(=O)(O)O)cc3Oc3cc(OP(=O)(O)O)ccc32)c2ccccc21 [DPO4, (PO4)2 fluorescein] | 54.29 | 148.32 | 85.42 | 0.151 |  |
| CC(=O)Oc1ccc2c(c1)Oc1cc(OC(C)=O)ccc1C21OC(=O)c2ccccc21 [FDA, fluorescein diacetate, reference compound] | 13.38 |  | 68.37 | 0.126 |  |
| CC(=O)Oc1ccc2c(c1)Oc1cc(OC(C)=O)ccc1C21OC(=O)c2ccccc21 [FDA--NAF, fluorescein diacetate, reference compound] | 17.98 | 93.36 | 81.99 | 0.136 |  |
| C[C@H](NC(=O)CNC(=O)[C@H](Cc1ccccc1)NC(=O)CN)C(=O)Nc1ccc2c(c1)Oc1cc(NC(=O)[C@H](C)NC(=O)CNC(=O)[C@H](Cc3ccccc3)NC(=O)CN)ccc1C21OC(=O)c2ccccc21 [GFGA, (Gly-Phe-Gly-Ala)2 Rho 110] (I: H-GFGA / II: H-GFGA; linker I:C-II:C via Rhodamine110) |  | 1.01 |  | 0.131 |  |
| CC(C)C[C@H](NC(=O)[C@@H]1CCCN1C(=O)CN)C(=O)NCC(=O)N1CCC[C@H]1C(=O)Nc1ccc2c(c1)Oc1cc(NC(=O)[C@@H]3CCCN3C(=O)CNC(=O)[C@H](CC(C)C)NC(=O)[C@@H]3CCCN3C(=O)CN)ccc1C21OC(=O)c2ccccc21 [GPLGP, (H--Gly--Pro--Leu--Gly--Pro)2 Rho 110.2TFA] (I: H-GPLGP / II: H-GPLGP; linker I:C-II:C via Rhodamine110) | 8.97 | 23.38 | 16.88 | 0.164 |  |
| CC(C)C[C@H](NC(=O)CNC(=O)[C@@H](N)CC(C)C)C(=O)NCC(=O)Nc1ccc2c(c1)Oc1cc(NC(=O)CNC(=O)[C@H](CC(C)C)NC(=O)CNC(=O)[C@@H](N)CC(C)C)ccc1C21OC(=O)c2ccccc21 [LGLG, (H--L--Leu--Gly--Leu--Gly)2 Rho 110.2TFA] (I: H-LGLG / II: H-LGLG; linker I:C-II:C via Rhodamine110) | 1.42 | 11.36 | 4.08 | 0.122 |  |
| N=C(N)NCCC[C@H](N)C(=O)NCC(=O)N[C@@H](CCC(=O)O)C(=O)N[C@@H](CO)C(=O)Nc1ccc2c(c1)Oc1cc(NC(=O)[C@H](CO)NC(=O)[C@H](CCC(=O)O)NC(=O)CNC(=O)[C@@H](N)CCCNC(=N)N)ccc1C21OC(=O)c2ccccc21 (stereo partly drawn) [RGES, (Arg-Gly-Glu-Ser)2 Rho 110] (I: H-RGES / II: H-RGES; linker I:C-II:C via Rhodamine110) | 1.43 | 8.37 | 3.96 | 0.118 |  |
| C[C@H](NC(=O)OCc1ccccc1)C(=O)N[C@@H](C)C(=O)Nc1ccc2c(c1)Oc1cc(NC(=O)[C@H](C)NC(=O)[C@H](C)NC(=O)OCc3ccccc3)ccc1C21OC(=O)c2ccccc21 [Z--AA, (Z--Ala--Ala)2 Rho 110] | 151.20 | 328.25 | 363.20 |  |  |
| C[C@H](NC(=O)OCc1ccccc1)C(=O)NCC(=O)Nc1ccc2c(c1)Oc1cc(NC(=O)CNC(=O)[C@H](C)NC(=O)OCc3ccccc3)ccc1C21OC(=O)c2ccccc21 [Z--AG, (Z--Ala--Gly)2 Rho 110] | 15.17 | 34.51 | 33.19 |  |  |
| N=C(N)NCCC[C@H](NC(=O)OCc1ccccc1)C(=O)Nc1ccc2c(c1)Oc1cc(NC(=O)[C@H](CCCNC(=N)N)NC(=O)OCc3ccccc3)ccc1C21OC(=O)c2ccccc21 (stereo partly drawn) [Z--ARG] | 2.02 | 16.80 | 7.22 | 0.106 |  |
| O=C(NCC(=O)N1CCC[C@H]1C(=O)Nc1ccc2c(c1)Oc1cc(NC(=O)[C@@H]3CCCN3C(=O)CNC(=O)OCc3ccccc3)ccc1C21OC(=O)c2ccccc21)OCc1ccccc1 [Z--GP, (carbobenzyloxycarbonyl-Gly-Pro)2 Rho 110] | 107.56 | 225.10 | 240.99 |  |  |
| C[C@@H](O)[C@H](NC(=O)OCc1ccccc1)C(=O)N1CCC[C@H]1C(=O)Nc1ccc2c(c1)Oc1cc(NC(=O)[C@@H]3CCCN3C(=O)[C@@H](NC(=O)OCc3ccccc3)[C@@H](C)O)ccc1C21OC(=O)c2ccccc21 [Z--TP6.5, (carbobenzyloxycarbonyl-Thr-Pro)2 Rho 110 (pH 6.5)] | 21.97 | 49.69 | 58.05 |  |  |
| (Val-Lys)2 Rho 110 (modified) [VK--M] | 2.05 | 43.37 | 4.31 |  |  |
| (carbobenzyloxycarbonyl-Gly-Pro)2 Rho 110 (modified) [Z--GP--M] | 53.74 | 119.81 | 130.62 |  |  |
| ALA--GLY* |  |  |  |  | MEAN DELTA FL ([1]; HIV + PATIENTS): 29.7; MEAN DELTA FL ([1]; HIV + PATIENTS, listed as ALA--GLY****): 39.9; MEAN DELTA FL ([1]; NORMALS): 31.6; MEAN DELTA FL ([1]; NORMALS, listed as ALA--GLY****): 48.0 |
| dichlorofluorescein |  |  |  | 0.268 | aberrant enzyme activity (MONOS; P89 Viral Stomatitis): + (>0.25 Increase over normal range); aberrant enzyme activity (MONOS; P92 Adenitis): + (>0.25 Increase over normal range); aberrant enzyme activity (MONOS; P95 Viral Syndrome): + (>0.25 Increase over normal range); aberrant enzyme activity (MONOS; P96 Viral Syndrome): + (>0.25 Increase over normal range); aberrant enzyme activity (MONOS; P97 Pyelonephritis): + (>0.25 Increase over normal range); aberrant enzyme activity (MONOS; P101 Fever-Unknown Origin): + (>0.25 Increase over normal range); aberrant enzyme activity (MONOS; P103 Viral Syndrome): °; aberrant enzyme activity (GRANS; P89 Viral Stomatitis): + (>0.25 Increase over normal range); aberrant enzyme activity (GRANS; P92 Adenitis): + (>0.25 Increase over normal range); aberrant enzyme activity (GRANS; P95 Viral Syndrome): + (>0.25 Increase over normal range); aberrant enzyme activity (GRANS; P96 Viral Syndrome): + (>0.25 Increase over normal range); aberrant enzyme activity (GRANS; P97 Pyelonephritis): + (>0.25 Increase over normal range); aberrant enzyme activity (GRANS; P101 Fever-Unknown Origin): + (>0.25 Increase over normal range); aberrant enzyme activity (GRANS; P103 Viral Syndrome): + (>0.25 Increase over normal range) |
